These compounds were tested on HIV-1 (H9IIIB strain) (assay: Cell-Based HIV Infection Assay Using a Reporter (MT4-GFP cells)). Settings: Human immunodeficiency virus 1, inflection point (IP) of viral growth inhibition; MT4-GFP cells infected with HIV-1 H9IIIB; 50% normal human serum; mean of at least two independent experiments; read-out: Cell Based IP (50% NHS).
Summary of the method: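 Inflection point from a 4-parameter curve of % viral growth inhibition, normalised to DMSO and triple-drug controls, using the 48 h/24 h ratio of GFP-positive cells (R0). MT4-GFP cells pre-infected 24 h with HIV-1 H9IIIB at low MOI; compounds tested in 50% normal human serum, 0.4% DMSO; mean of ≥2 experiments.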
Compound `Cn1nc(C(F)(F)F)cc1[C@H](c1ccc(Cl)cc1)[C@H](N)C(=O)Nc1cncc(F)c1CC[C@H]1CN[C@@H]2CCCS(=O)(=O)N1C2` [Example 262, (βR)-4-chloro-N-(4-{2-[(6R,9S)-2,2-dioxido-2-thia-1,7-diazabicyclo[4.3.1]dec-9-yl]ethyl}-5-fluoropyridin-3-yl)-β-[1-methyl-3-(trifluoromethyl)-1H-pyrazol-5-yl]-L-phenylalaninamide] has an EC50 of 22 nM.
For `CC(C)Oc1cnc([C@H](c2ccc(Cl)cc2)[C@H](N)C(=O)Nc2cncc(F)c2CC[C@H]2CN[C@@H]3CCCS(=O)(=O)N2C3)cn1` [Example 263, (βR)-4-chloro-N-(4-{2-[(6R,9S)-2,2-dioxido-2-thia-1,7-diazabicyclo[4.3.1]dec-9-yl]ethyl}-5-fluoropyridin-3-yl)-β-[5-(1-methylethoxy)pyrazin-2-yl]-L-phenylalaninamide], the EC50 was 5.2 nM.
`N[C@H](C(=O)Nc1cccc(F)c1CC[C@H]1CN[C@@H]2CCCS(=O)(=O)N1C2)[C@@H](c1ccc(Cl)cc1)c1nc(C(F)(F)F)cs1` [Example 264, (βR)-4-chloro-N-(2-{2-[(6R,9S)-2,2-dioxido-2-thia-1,7-diazabicyclo[4.3.1]dec-9-yl]ethyl}-3-fluorophenyl)-β-[4-(trifluoromethyl)-1,3-thiazol-2-yl]-L-phenylalaninamide] showed an EC50 of 6.9 nM.
Work on `Cn1nc([C@H](c2ccc(Cl)c(F)c2)[C@H](N)C(=O)Nc2cccc(F)c2CC[C@H]2CN[C@@H]3CCCS(=O)(=O)N2C3)cc1C(F)(F)F` [Example 265, (βR)-4-chloro-N-(2-{2-[(6R,9S)-2,2-dioxido-2-thia-1,7-diazabicyclo[4.3.1]dec-9-yl]ethyl}-3-fluorophenyl)-3-fluoro-β-[1-methyl-5-(trifluoromethyl)-1H-pyrazol-3-yl]-L-phenylalaninamide] yielded an EC50 of 9.8 nM.
`Cn1nc([C@H](c2ccc(Cl)c(F)c2)[C@H](N)C(=O)Nc2cncc(F)c2CC[C@H]2CN[C@@H]3CCCS(=O)(=O)N2C3)cc1C(F)(F)F` [Example 266, (βR)-4-chloro-N-(4-{2-[(6R,9S)-2,2-dioxido-2-thia-1,7-diazabicyclo[4.3.1]dec-9-yl]ethyl}-5-fluoropyridin-3-yl)-3-fluoro-β-[1-methyl-5-(trifluoromethyl)-1H-pyrazol-3-yl]-L-phenylalaninamide] was tested, and the EC50 was 11 nM.
For `Cn1nc(C(F)(F)F)cc1[C@H](c1ccc(Cl)c(F)c1)[C@H](N)C(=O)Nc1cccc(F)c1CC[C@H]1CN[C@@H]2CCCS(=O)(=O)N1C2` [Example 267, (βR)-4-chloro-N-(2-{2-[(6R,9S)-2,2-dioxido-2-thia-1,7-diazabicyclo[4.3.1]dec-9-yl]ethyl}-3-fluorophenyl)-3-fluoro-β-[1-methyl-3-(trifluoromethyl)-1H-pyrazol-5-yl]-L-phenylalaninamide], the EC50 was 8 nM.
Compound `Cn1nc(C(F)(F)F)cc1[C@H](c1ccc(Cl)c(F)c1)[C@H](N)C(=O)Nc1cncc(F)c1CC[C@H]1CN[C@@H]2CCCS(=O)(=O)N1C2` [Example 268, (βR)-4-chloro-N-(4-{2-[(6R,9S)-2,2-dioxido-2-thia-1,7-diazabicyclo[4.3.1]dec-9-yl]ethyl}-5-fluoropyridin-3-yl)-3-fluoro-β-[1-methyl-3-(trifluoromethyl)-1H-pyrazol-5-yl]-L-phenylalaninamide] has an EC50 of 18 nM.
`N[C@H](C(=O)Nc1cncc(F)c1CC[C@H]1CN[C@@H]2CCCS(=O)(=O)N1C2)[C@@H](c1ccc(Cl)cc1)c1csc(C(F)(F)F)n1` [Example 269, (βR)-4-chloro-N-(4-{2-[(6R,9S)-2,2-dioxido-2-thia-1,7-diazabicyclo[4.3.1]dec-9-yl]ethyl}-5-fluoropyridin-3-yl)-β-[2-(trifluoromethyl)-1,3-thiazol-4-yl]-L-phenylalaninamide] showed an EC50 of 5 nM.
Work on `COC(=O)N[C@H](C(=O)Nc1cccc(F)c1CC[C@H]1CN[C@@H]2CCCS(=O)(=O)N1C2)[C@@H](c1ccc(Cl)cc1)C1CCC(C)(C)OC1` (stereo partly drawn) [Example 271, methyl {(1S,2R)-2-(4-chlorophenyl)-2-(6,6-dimethyltetrahydro-2H-pyran-3-yl)-1-[(2-{2-[(6R,9S)-2,2-dioxido-2-thia-1,7-diazabicyclo[4.3.1]dec-9-yl]ethyl}-3-fluorophenyl)carbamoyl]ethyl}carbamate] yielded an EC50 of 7 nM.
For `N[C@H](C(=O)Nc1cncc(F)c1CC[C@H]1CN[C@@H]2CCCS(=O)(=O)N1C2)[C@@H](c1ccc(Cl)cc1)C1CCCC(F)(F)C1` (stereo partly drawn) [Example 272, (βR)-4-chloro-β-(3,3-difluorocyclohexyl)-N-(4-{2-[(6R,9S)-2,2-dioxido-2-thia-1,7-diazabicyclo[4.3.1]dec-9-yl]ethyl}-5-fluoropyridin-3-yl)-L-phenylalaninamide], the EC50 was 5.7 nM.
Work on `COC(=O)N[C@H](C(=O)Nc1cccc(F)c1CC[C@H]1CN[C@@H]2CCCS(=O)(=O)N1C2)[C@@H](c1ccc(Cl)cc1)C1CCC(C(F)(F)F)OC1` (stereo partly drawn) [Example 273, methyl {(1S,2R)-2-(4-chlorophenyl)-1-[(2-{2-[(6R,9S)-2,2-dioxido-2-thia-1,7-diazabicyclo[4.3.1]dec-9-yl]ethyl}-3-fluorophenyl)carbamoyl]-2-[6-(trifluoromethyl)tetrahydro-2H-pyran-3-yl]ethyl}carbamate] yielded an EC50 of 14 nM.
Compound `N[C@H](C(=O)Nc1cccc(F)c1CC[C@H]1CNC[C@@H]2CCCS(=O)(=O)N1C2)[C@@H](c1ccc(Cl)cc1)C1CCOCC1` [Example 274, (2S,3R)-2-Amino-3-(4-chlorophenyl)-N-(2-(2-((6S,10S)-2,2-dioxido-2-thia-1,8-diazabicyclo[4.4.1]undecan-10-yl)ethyl)-3-fluorophenyl)-3-(tetrahydro-2H-pyran-4-yl)propanamide] has an EC50 of 670 nM.
`CC1(C)C[C@H]([C@H](c2ccc(Cl)cc2)[C@H](N)C(=O)Nc2cccc(F)c2CC[C@H]2CN[C@@H]3CCS(=O)(=O)N2C3)CCO1` [Example 275, (2S,3R)-2-amino-3-(4-chlorophenyl)-3-((R)-2,2-dimethyltetrahydro-2H-pyran-4-yl)-N-(2-(2-((5R,8S)-2,2-dioxido-2-thia-1,6-diazabicyclo[3.3.1]nonan-8-yl)ethyl)-3-fluorophenyl)propanamide] was tested, and the EC50 was 25 nM.
`N[C@H](C(=O)Nc1cccc(F)c1CC[C@H]1CN[C@@H]2CCCS(=O)(=O)N1CC2)[C@@H](c1ccc(F)cc1)c1cc(F)cc(F)c1` [Example 276, (2S,3S)-2-Amino-3-(3,5-difluorophenyl)-N-(2-(2-((6R,9S)-2,2-dioxido-2-thia-1,7-diazabicyclo[4.3.2]undecan-9-yl)ethyl)-3-fluorophenyl)-3-(4-fluorophenyl)propanamide] was tested, and the EC50 was 6.1 nM.
For `COC(=O)N[C@H](C(=O)Nc1cccc(F)c1CC[C@H]1CN[C@@H]2CCCCS(=O)(=O)N1C2)[C@@H](c1ccc(F)cc1)c1cc(F)cc(F)c1` [Example 277, Methyl ((1S,2S)-1-(3,5-difluorophenyl)-3-((2-(2-((7R,10S)-2,2-dioxido-2-thia-1,8-diazabicyclo[5.3.1]undecan-10-yl)ethyl)-3-fluorophenyl)amino)-1-(4-fluorophenyl)-3-oxopropan-2-yl)carbamate], the EC50 was 10 nM.

— patent US10138255B2, “Piperazine derivatives as HIV protease inhibitors” (Merck Sharp & Dohme Corp., priority 2014, dated 2018)
